This test has as its system HLA-A*24. Description: MHC binding assay, UV-ligand exchange with beta2m ELISA, HLA-A*24. Set-up: species or system human. Particulars: binding to HLA-A*24 ranged by peptide exchange yield (UV-ligand exchange, beta2m ELISA). The source says:
Candidate peptides for T cell based therapies according to the present invention were further tested for their MHC binding capacity (affinity). The individual peptide-MHC complexes were produced by UV-ligand exchange, where a UV-sensitive peptide is cleaved upon UV-irradiation, and exchanged with the peptide of interest as analyzed. Only peptide candidates that can effectively bind and stabilize the peptide-receptive MHC molecules prevent dissociation of the MHC complexes. To determine the yield of the exchange reaction, an ELISA was performed based on the detection of the light chain (ß2 m) of stabilized MHC complexes. The assay was performed as generally described in Rodenko et al. (Rodenko et al., 2006).
96 well MAXISorp plates (NUNC) were coated over night with 2 ug/ml streptavidin in PBS at room temperature, washed 4× and blocked for 1 h at 37° C. in 2% BSA containing blocking buffer. […] Peptide-MHC monomers of the UV-exchange reaction were diluted 100 fold in blocking buffer. Samples were incubated for 1 h at 37° C., washed four times, incubated with 2 ug/ml HRP conjugated anti-β2 m for 1h at 37° C., washed again and detected with TMB solution that is stopped with […]. Absorption was measured at 450 nm. Candidate peptides that show a high exchange yield (preferably higher than 50%, most preferred higher than 75%) are generally preferred for a generation and production of antibodies or fragments thereof, and/or T cell receptors or fragments thereof, as they show sufficient avidity to the MHC molecules and prevent dissociation of the MHC complexes.
Background: ELISA stands for enzyme-linked immunosorbent assay.

Among the data in US11541107B2, “Peptides and T cells for use in immunotherapeutic treatment of various cancers” (Immatics Biotechnologies GmbH, priority 2015, dated 2023) are Peptide exchange values, retold here.

“268 (IFITKALQI; listed as Homo sapiens) [compound 268]”: the Peptide exchange entry is “++ (20%-49% = ++)”.

“291 (YYLGSGRETF; listed as Homo sapiens) [compound 291]”: the Peptide exchange entry was “+++ (50%-75% = +++)”.

Turning to “139 (IFGIFPNQF; listed as Homo sapiens) [compound 139]”, the Peptide exchange entry is “+++ (50%-75% = +++)”.

On to “129 (KYIDYLMTW; listed as Homo sapiens) [compound 129]”, for which the Peptide exchange result is recorded as “++++ (>=75% = ++++)”.

For the substance “231 (AFADVSVKF; listed as Homo sapiens) [compound 231]”, the Peptide exchange result is “++++ (>=75% = ++++)”.

For the substance “317 (VFDTSIAQLF; listed as Homo sapiens) [compound 317]”, the Peptide exchange entry was “+++ (50%-75% = +++)”.

Regarding “258 (AYAQLGYLL; listed as Homo sapiens) [compound 258]”, the Peptide exchange entry is “+++ (50%-75% = +++)”.

On to “235 (VYKDSIYYI; listed as Homo sapiens) [compound 235]”, for which the Peptide exchange result was “+++ (50%-75% = +++)”.

Turning to “230 (TYGMVMVTF; listed as Homo sapiens) [compound 230]”, the Peptide exchange entry is given as “+++ (50%-75% = +++)”.

Take “187 (AYAANVHYL; listed as Homo sapiens) [compound 187]”: the Peptide exchange entry was “++++ (>=75% = ++++)”.

Take “133 (KYLEDMKTYF; listed as Homo sapiens) [compound 133]”: the Peptide exchange result was “+++ (50%-75% = +++)”.

Regarding “191 (TYPDGTYTGRIF; listed as Homo sapiens) [compound 191]”, the Peptide exchange entry was “+++ (50%-75% = +++)”.

In the case of “204 (EYLSTCSKL; listed as Homo sapiens) [compound 204]”, the Peptide exchange result was “+++ (50%-75% = +++)”.

Take “153 (VYVPFGGKSMITF; listed as Homo sapiens) [compound 153]”: the Peptide exchange result is given as “++++ (>=75% = ++++)”.

“277 (FYTFPFQQL; listed as Homo sapiens) [compound 277]”: the Peptide exchange entry is reported as “+++ (50%-75% = +++)”.

Take “136 (IYPEWPVVFF; listed as Homo sapiens) [compound 136]”: the Peptide exchange result is “+++ (50%-75% = +++)”.

With “282 (NYLVDPVTI; listed as Homo sapiens) [compound 282]”, the Peptide exchange entry is “+++ (50%-75% = +++)”.

For “118 (KYLNSVQYI; listed as Homo sapiens) [compound 118]”, the Peptide exchange entry was “+++ (50%-75% = +++)”.

Regarding “220 (SYSEIKDFL; listed as Homo sapiens) [compound 220]”, the Peptide exchange result is listed as “++++ (>=75% = ++++)”.

For “257 (IFIDNSTQPLHF; listed as Homo sapiens) [compound 257]”, the Peptide exchange entry is “+++ (50%-75% = +++)”.

As for “373 (GYISNGELF; listed as Homo sapiens) [compound 373]”, the Peptide exchange entry is given as “+++ (50%-75% = +++)”.

On to “168 (RYLEAALRL; listed as Homo sapiens) [compound 168]”, for which the Peptide exchange entry is recorded as “+++ (50%-75% = +++)”.

For “379 (VFIAQGYTL; listed as Homo sapiens) [compound 379]”, the Peptide exchange result was “++++ (>=75% = ++++)”.

“128 (VYPFDWQYI; listed as Homo sapiens) [compound 128]”: the Peptide exchange entry is reported as “++++ (>=75% = ++++)”.

With “260 (VYMNVMTRL; listed as Homo sapiens) [compound 260]”, the Peptide exchange result is “++++ (>=75% = ++++)”.

Take “199 (SYLNHLNNL; listed as Homo sapiens) [compound 199]”: the Peptide exchange result is listed as “+++ (50%-75% = +++)”.

Regarding “210 (IYAGVGEFSF; listed as Homo sapiens) [compound 210]”, the Peptide exchange result is “++++ (>=75% = ++++)”.

In the case of “143 (KYIFQLNEI; listed as Homo sapiens) [compound 143]”, the Peptide exchange entry is reported as “+++ (50%-75% = +++)”.

Take “252 (AFGQETNVPLNNF; listed as Homo sapiens) [compound 252]”: the Peptide exchange entry is “++++ (>=75% = ++++)”.

“382 (AYLPPLQQVF; listed as Homo sapiens) [compound 382]”: the Peptide exchange result is “+++ (50%-75% = +++)”.

For “185 (QYLVHVNDL; listed as Homo sapiens) [compound 185]”, the Peptide exchange result was “++++ (>=75% = ++++)”.

Consider “270 (YYSQESKVLYL; listed as Homo sapiens) [compound 270]”, for which the Peptide exchange result was “+++ (50%-75% = +++)”.

For the substance “375 (KYTDYILKI; listed as Homo sapiens) [compound 375]”, the Peptide exchange result is “+++ (50%-75% = +++)”.

In the case of “384 (RYFDVGLHNF; listed as Homo sapiens) [compound 384]”, the Peptide exchange entry is on record as “+++ (50%-75% = +++)”.

On to “347 (VYAEVNSL; listed as Homo sapiens) [compound 347]”, for which the Peptide exchange result is “+++ (50%-75% = +++)”.

On to “314 (RYFKGDYSI; listed as Homo sapiens) [compound 314]”, for which the Peptide exchange result is “+++ (50%-75% = +++)”.

Take “249 (RYHPTTCTI; listed as Homo sapiens) [compound 249]”: the Peptide exchange entry is listed as “++++ (>=75% = ++++)”.

With “304 (EYNEVANLF; listed as Homo sapiens) [compound 304]”, the Peptide exchange result is on record as “+++ (50%-75% = +++)”.

As to “367 (LYQDHMQYI; listed as Homo sapiens) [compound 367]”, the Peptide exchange result is on record as “++ (20%-49% = ++)”.

As to “293 (VYPHFSTTNLI; listed as Homo sapiens) [compound 293]”, the Peptide exchange result is “++++ (>=75% = ++++)”.

As for “211 (VFKSEGAYF; listed as Homo sapiens) [compound 211]”, the Peptide exchange entry is reported as “++++ (>=75% = ++++)”.

As to “144 (VFASLPGFLF; listed as Homo sapiens) [compound 144]”, the Peptide exchange result is recorded as “++++ (>=75% = ++++)”.

On to “193 (LYLENNAQTQF; listed as Homo sapiens) [compound 193]”, for which the Peptide exchange result was “+++ (50%-75% = +++)”.

With “152 (KFFDDLGDELLF; listed as Homo sapiens) [compound 152]”, the Peptide exchange entry is “++ (20%-49% = ++)”.

As for “113 (IYSFHTLSF; listed as Homo sapiens) [compound 113]”, the Peptide exchange result is “+++ (50%-75% = +++)”.

On to “300 (TYPSQLPSL; listed as Homo sapiens) [compound 300]”, for which the Peptide exchange entry is “+++ (50%-75% = +++)”.

As for “207 (LYSDAFKFIVF; listed as Homo sapiens) [compound 207]”, the Peptide exchange entry is listed as “+++ (50%-75% = +++)”.

For the substance “376 (VYTPVASRQSL; listed as Homo sapiens) [compound 376]”, the Peptide exchange result is listed as “+++ (50%-75% = +++)”.

As to “110 (SYPKIIEEF; listed as Homo sapiens) [compound 110]”, the Peptide exchange result is “+++ (50%-75% = +++)”.

“120 (GYIEHFSLW; listed as Homo sapiens) [compound 120]”: the Peptide exchange entry was “++++ (>=75% = ++++)”.

“319 (KYSDVKNLI; listed as Homo sapiens) [compound 319]”: the Peptide exchange result is recorded as “++++ (>=75% = ++++)”.

Regarding “369 (VYTHEVVTL; listed as Homo sapiens) [compound 369]”, the Peptide exchange entry was “+++ (50%-75% = +++)”.

With “298 (AYKSEVVYF; listed as Homo sapiens) [compound 298]”, the Peptide exchange result is reported as “++++ (>=75% = ++++)”.

As to “263 (RYILENHDF; listed as Homo sapiens) [compound 263]”, the Peptide exchange entry is “+++ (50%-75% = +++)”.

As to “374 (VFLPRVTEL; listed as Homo sapiens) [compound 374]”, the Peptide exchange result is listed as “++ (20%-49% = ++)”.

Regarding “245 (LYPQLFVVL; listed as Homo sapiens) [compound 245]”, the Peptide exchange result was “+++ (50%-75% = +++)”.

On to “355 (IYVTGGHLF; listed as Homo sapiens) [compound 355]”, for which the Peptide exchange result is on record as “+++ (50%-75% = +++)”.

Take “290 (KYGDFKLLEF; listed as Homo sapiens) [compound 290]”: the Peptide exchange entry was “++++ (>=75% = ++++)”.

In the case of “247 (SFTKTSPNF; listed as Homo sapiens) [compound 247]”, the Peptide exchange result was “+++ (50%-75% = +++)”.

On to “254 (KYLESSATF; listed as Homo sapiens) [compound 254]”, for which the Peptide exchange entry is reported as “+++ (50%-75% = +++)”.

As for “279 (VWLPASVLF; listed as Homo sapiens) [compound 279]”, the Peptide exchange entry was “+++ (50%-75% = +++)”.

“352 (QYGGDLTNTF; listed as Homo sapiens) [compound 352]”: the Peptide exchange entry is recorded as “+++ (50%-75% = +++)”.

For “146 (NYYERIHAL; listed as Homo sapiens) [compound 146]”, the Peptide exchange result is on record as “+++ (50%-75% = +++)”.

Consider “221 (KYIGNLDLL; listed as Homo sapiens) [compound 221]”, for which the Peptide exchange result was “++++ (>=75% = ++++)”.

For “266 (KYTDWTEFL; listed as Homo sapiens) [compound 266]”, the Peptide exchange entry is reported as “+++ (50%-75% = +++)”.

Take “275 (KYGTLDVTF; listed as Homo sapiens) [compound 275]”: the Peptide exchange entry is recorded as “++++ (>=75% = ++++)”.
